ChEMBL document CHEMBL5316291 (J Med Chem, 2023)
Blank lines part the entries; values can stand above or below the compound they belong to.

Tests used:
[1] = Half life in ICR mouse at 1 mg/kg, iv measured upto 24 hrs by LC-MS/MS analysis; type: ADME, organism-based; details: in vivo
[2] = Half life in ICR mouse at 10 mg/kg, po measured upto 24 hrs by LC-MS/MS analysis; type: ADME, organism-based; details: in vivo
[3] = Tmax in ICR mouse at 1 mg/kg, iv measured upto 24 hrs by LC-MS/MS analysis; type: ADME, organism-based; details: in vivo
[4] = Tmax in ICR mouse at 10 mg/kg, po measured upto 24 hrs by LC-MS/MS analysis; type: ADME, organism-based; details: in vivo
[5] = Initial plasma concentration in ICR mouse at 1 mg/kg, iv measured upto 24 hrs by LC-MS/MS analysis; type: ADME, organism-based
[6] = AUC(0 to infinity) in ICR mouse at 1 mg/kg, iv measured upto 24 hrs by LC-MS/MS analysis; type: ADME, organism-based; set-up: time < 24 hrs, dose 1 mg/kg, route iv; details: in vivo
[7] = AUC(0 to infinity) in ICR mouse at 10 mg/kg, po measured upto 24 hrs by LC-MS/MS analysis; type: ADME, organism-based; set-up: dose 10 mg/kg, time < 24 hrs, route po; details: in vivo
[8] = Apparent volume of distribution in ICR mouse at 1 mg/kg, iv measured upto 24 hrs by LC-MS/MS analysis; type: ADME, organism-based; details: in vivo, read-out: Vz
[9] = Apparent volume of distribution in ICR mouse at 10 mg/kg, po measured upto 24 hrs by LC-MS/MS analysis; type: ADME, organism-based; details: in vivo
[10] = Clearance in ICR mouse at 1 mg/kg, iv measured upto 24 hrs by LC-MS/MS analysis; type: ADME, organism-based; details: in vivo
[11] = Clearance in ICR mouse at 10 mg/kg, po measured upto 24 hrs by LC-MS/MS analysis; type: ADME, organism-based; details: in vivo
[12] = MRT(0 to infinity) in ICR mouse at 1 mg/kg, iv measured upto 24 hrs by LC-MS/MS analysis; type: ADME, organism-based; details: in vivo
[13] = MRT(0 to infinity) in ICR mouse at 10 mg/kg, po measured upto 24 hrs by LC-MS/MS analysis; type: ADME, organism-based; details: in vivo
[14] = Oral bioavailability in ICR mouse at 10 mg/kg measured upto 24 hrs by LC-MS/MS analysis; type: ADME, organism-based; details: in vivo
[15] = Cytotoxicity against mouse AML12 cells assessed as inhibition of cell growth measured after 6 days by MTT assay; type: toxicity, cell-based
[16] = test system: CT26; experiment: Antitumor activity against mouse CT26 cells xenografted in BALB/c mouse assessed as tumor growth inhibition at 100 mg/kg, po bid measured for 14 days; type: functional; details: CT26, 336 h, time 14 day, read-out: TGI
[17] = Toxicity in BALB/c mouse implanted with mouse CT26 cells assessed as lung damage at 100 mg/kg, po measured for 14 days by hematoxylin and eosin staining based fluorescence microscopic analysis; type: organism-based; details: in vivo, 336 h, time 14 day
[18] = Toxicity in BALB/c mouse implanted with mouse CT26 cells assessed as liver damage at 100 mg/kg, po measured for 14 days by hematoxylin and eosin staining based fluorescence microscopic analysis; type: organism-based; details: in vivo, 336 h, time 14 day
[19] = Toxicity in BALB/c mouse implanted with mouse CT26 cells assessed as kidney damage at 100 mg/kg, po measured for 14 days by hematoxylin and eosin staining based fluorescence microscopic analysis; type: organism-based; details: in vivo, 336 h, time 14 day
[20] = Toxicity in BALB/c mouse implanted with mouse CT26 cells assessed as spleen damage at 100 mg/kg, po measured for 14 days by hematoxylin and eosin staining based fluorescence microscopic analysis; type: organism-based; details: in vivo, 336 h, time 14 day
[21] = test system: CT26; experiment: Antitumor activity against mouse CT26 cells implanted in BALB/c mouse assessed as increase in infiltration of CD3 positive CD4 positive T lymphocytes in tumors at 100 mg/kg, po measured after 14 days by flow cytometry (reference value: 7.95%); type: functional; details: time 14 day
[22] = test system: CT26; experiment: Antitumor activity against mouse CT26 cells implanted in BALB/c mouse assessed as increase in infiltration of CD4 positive CD8 positive T lymphocytes in tumors at 100 mg/kg, po measured after 14 days by flow cytometry (reference value: 6.67%); type: functional; details: time 14 day
[23] = target: T1, Protein mono-ADP-ribosyltransferase TIPARP (Homo sapiens) (UniProt Q7Z3E1); experiment: Inhibition of human recombinant N-terminal FLAG tagged PARP7 (400 to 657 end residues) at 100 nM incubated for 1 hr by ELISA assay relative to control
T1 sequence (whole entry): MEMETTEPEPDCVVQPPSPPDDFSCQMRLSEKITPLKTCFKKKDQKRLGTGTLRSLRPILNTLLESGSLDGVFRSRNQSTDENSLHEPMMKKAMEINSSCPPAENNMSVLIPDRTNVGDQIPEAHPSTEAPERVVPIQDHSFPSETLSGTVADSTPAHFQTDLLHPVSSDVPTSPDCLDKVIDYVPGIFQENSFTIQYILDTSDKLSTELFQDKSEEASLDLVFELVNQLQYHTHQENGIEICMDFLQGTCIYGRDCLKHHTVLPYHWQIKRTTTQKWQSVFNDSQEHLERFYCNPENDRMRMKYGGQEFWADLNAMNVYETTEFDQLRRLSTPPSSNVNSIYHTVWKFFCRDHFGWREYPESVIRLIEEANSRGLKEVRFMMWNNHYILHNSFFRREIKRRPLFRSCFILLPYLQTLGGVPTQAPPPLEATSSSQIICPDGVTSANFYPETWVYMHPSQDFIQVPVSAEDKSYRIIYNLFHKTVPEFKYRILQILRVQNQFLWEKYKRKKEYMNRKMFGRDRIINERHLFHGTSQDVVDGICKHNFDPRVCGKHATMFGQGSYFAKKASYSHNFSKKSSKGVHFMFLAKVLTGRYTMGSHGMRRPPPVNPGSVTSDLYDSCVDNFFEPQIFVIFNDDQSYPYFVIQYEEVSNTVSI

[24] = target: T2, Protein mono-ADP-ribosyltransferase TIPARP (Homo sapiens, UniProt Q7Z3E1); experiment: Inhibition of human recombinant N-terminal FLAG tagged PARP7 (400 to 657 end residues) incubated for 1 hr by ELISA assay
T2 sequence (Q7Z3E1 whole entry): T1 sequence (whole entry)

[25] = target: Poly [ADP-ribose] polymerase 1 (Homo sapiens, UniProt P09874); experiment: Inhibition of human recombinant N-terminal GST-tagged PARP1 (2 to 1014 end residues) incubated for 1 hr by ELISA assay
Poly [ADP-ribose] polymerase 1, sequence (P09874 whole entry): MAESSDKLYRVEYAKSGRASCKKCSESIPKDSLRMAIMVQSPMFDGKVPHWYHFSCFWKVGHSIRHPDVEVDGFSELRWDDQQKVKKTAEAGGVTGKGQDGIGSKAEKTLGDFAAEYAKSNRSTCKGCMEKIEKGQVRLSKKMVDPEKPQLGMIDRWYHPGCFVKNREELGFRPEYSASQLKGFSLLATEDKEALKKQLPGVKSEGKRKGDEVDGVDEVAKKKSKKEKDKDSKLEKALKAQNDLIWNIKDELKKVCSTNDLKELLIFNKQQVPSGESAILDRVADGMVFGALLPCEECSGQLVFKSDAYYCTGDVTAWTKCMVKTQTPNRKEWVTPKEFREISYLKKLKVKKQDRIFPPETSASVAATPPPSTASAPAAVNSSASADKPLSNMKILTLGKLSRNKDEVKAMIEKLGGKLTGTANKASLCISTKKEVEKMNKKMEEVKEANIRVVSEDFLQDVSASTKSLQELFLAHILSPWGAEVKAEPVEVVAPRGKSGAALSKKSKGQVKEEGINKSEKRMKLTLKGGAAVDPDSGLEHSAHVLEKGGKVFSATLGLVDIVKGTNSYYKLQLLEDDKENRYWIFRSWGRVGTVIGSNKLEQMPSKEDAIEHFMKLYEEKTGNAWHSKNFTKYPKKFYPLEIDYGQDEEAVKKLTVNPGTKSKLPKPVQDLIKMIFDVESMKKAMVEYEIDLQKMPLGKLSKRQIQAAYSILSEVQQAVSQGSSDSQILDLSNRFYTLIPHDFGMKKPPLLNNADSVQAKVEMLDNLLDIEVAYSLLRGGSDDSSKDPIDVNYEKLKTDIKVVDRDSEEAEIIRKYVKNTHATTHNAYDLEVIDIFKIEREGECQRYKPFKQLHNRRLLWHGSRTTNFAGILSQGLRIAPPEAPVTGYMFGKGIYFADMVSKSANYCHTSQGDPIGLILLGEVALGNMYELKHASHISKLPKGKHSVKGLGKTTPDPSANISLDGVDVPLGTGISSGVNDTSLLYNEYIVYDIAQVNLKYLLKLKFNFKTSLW

t1/2 [1]: 9 min
t1/2 [2]: 54 min
Tmax [3]: 4.8 min
Tmax [4]: 13.2 min
C0 at 24 h [5]: 1.23 µg/mL
AUC [6]: 0.256 µg·h/mL
AUC [7]: 0.656 µg·h/mL
Vd [8]: 0.872 L/kg
Vz [9]: 19.694 L/kg
clearance [10]: 4.02 L/h/kg
CL/F [11]: 15.6 L/h/kg
MRT inf [12]: 12 min
MRT inf [13]: 54 min
bioavailability [14]: 25.7%
Structure (SMILES): C[C@@H](COCCC(=O)N1CCN(c2ncc(C(F)(F)F)cn2)CC1)Nc1cn[nH]c(=O)c1C(F)(F)F [ATAMPARIB]
IC50 at 6 days [15]: > 50 µM
inhibition in vivo at 100 mg/kg [16]: 30%
Activity [17]: Non-Toxic
Activity [18]: Non-Toxic
Activity [19]: Non-Toxic
Activity [20]: Non-Toxic
Activity [21]: 48.2%
Activity [22]: 19.1%

inhibition [23]: 35%
Structure (SMILES): C[C@@H](CN1CC(C(=O)N2CCN(c3cccc4c3oc3ccccc34)CC2)C1)Nc1cn[nH]c(=O)c1C(F)(F)F

inhibition [23]: 39.6%
Structure (SMILES): O=C(C1CN(CC2(Nc3cn[nH]c(=O)c3C(F)(F)F)CC2)C1)N1CCN(c2ncc(C(F)(F)F)cn2)CC1

inhibition [23]: 71.5%
IC50 [24]: 0.0345 µM
Structure (SMILES): C[C@@H](CN1CC(C(=O)N2CCN(c3ncc(C#N)cn3)CC2)C1)Nc1cn[nH]c(=O)c1C(F)(F)F

inhibition [23]: 32%
Structure (SMILES): C[C@@H](CN1CC(C(=O)N2CCN(c3ccc(C(F)(F)F)cc3)CC2)C1)Nc1cn[nH]c(=O)c1C(F)(F)F

inhibition [23]: 82%
IC50 [24]: 0.0145 µM
Structure (SMILES): C[C@@H](CN1CC(C(=O)N2CCN(c3ccc(C(F)(F)F)cn3)CC2)C1)Nc1cn[nH]c(=O)c1C(F)(F)F

inhibition [23]: 40%
Structure (SMILES): C[C@@H](CN1CC(C(=O)N2CCN(c3ncc(-c4ccc(C(F)(F)F)cc4)cn3)CC2)C1)Nc1cn[nH]c(=O)c1C(F)(F)F

inhibition [23]: 33.6%
IC50 [25]: > 5 µM
Structure (SMILES): C[C@@H](CN1CCC(C(=O)N2CCN(c3ncc(C(F)(F)F)cn3)CC2)CC1)Nc1cn[nH]c(=O)c1C(F)(F)F

inhibition [23]: 65%
Structure (SMILES): C[C@@H](CN1CC(C(=O)N2CCN(c3nccc(C(F)(F)F)n3)CC2)C1)Nc1cn[nH]c(=O)c1C(F)(F)F

inhibition [23]: 51%
Structure (SMILES): C[C@@H](CN1CC(C(=O)NC2CN(c3ncc(C(F)(F)F)cn3)C2)C1)Nc1cn[nH]c(=O)c1C(F)(F)F

inhibition [23]: 85.5%
IC50 [24]: 0.0111 µM
Structure (SMILES): C[C@@H](CN1CC(C(=O)N2CCN(c3ncc(Br)cn3)CC2)C1)Nc1cn[nH]c(=O)c1C(F)(F)F

inhibition [23]: 51.4%
IC50 [24]: 0.0424 µM
Structure (SMILES): Cc1cnc(N2CCN(C(=O)C3CN(C[C@H](C)Nc4cn[nH]c(=O)c4C(F)(F)F)C3)CC2)nc1

inhibition [23]: 18%
Structure (SMILES): C[C@@H](CN1CC(C(=O)N2CCN(c3ncccn3)CC2)C1)Nc1cn[nH]c(=O)c1C(F)(F)F

inhibition [23]: 55.5%
IC50 [24]: 0.116 µM
Structure (SMILES): C[C@@H](CN1CC(C(=O)N2C3CC2CN(c2ncc(C(F)(F)F)cn2)C3)C1)Nc1cn[nH]c(=O)c1C(F)(F)F

inhibition [23]: 44.9%
IC50 [25]: 1.13 µM
Structure (SMILES): C[C@@H](CN1CCC(C(=O)N2CCN(c3ncc(C(F)(F)F)cn3)CC2)C1)Nc1cn[nH]c(=O)c1C(F)(F)F (some centres undefined)

inhibition [23]: 95%
IC50 [24]: 0.0292 µM
Structure (SMILES): C[C@@H](CN1CC(C(=O)N2CCN(c3ncc(S(C)(=O)=O)cn3)CC2)C1)Nc1cn[nH]c(=O)c1C(F)(F)F

inhibition [23]: 66.8%
IC50 [24]: 0.0393 µM
Structure (SMILES): O=C(C1CN(CCNc2cn[nH]c(=O)c2C(F)(F)F)C1)N1CCN(c2ncc(C(F)(F)F)cn2)CC1

inhibition [23]: 90%
IC50 [24]: 0.0194 µM
Structure (SMILES): C[C@@H](CN1CC(C(=O)N2CCN(c3ccc4c(c3)OC(F)(F)O4)CC2)C1)Nc1cn[nH]c(=O)c1C(F)(F)F

inhibition [23]: 56%
Structure (SMILES): COc1cnc(N2CCN(C(=O)C3CN(C[C@H](C)Nc4cn[nH]c(=O)c4C(F)(F)F)C3)CC2)nc1

inhibition [23]: 26%
Structure (SMILES): C[C@@H](CN1CC(C(=O)N2CCN(c3ncc(F)cn3)CC2)C1)Nc1cn[nH]c(=O)c1C(F)(F)F

inhibition [23]: 75.5%
Structure (SMILES): C[C@@H](CN1CC(C(=O)N2CCN(c3ncc(Cl)cn3)CC2)C1)Nc1cn[nH]c(=O)c1C(F)(F)F

inhibition [23]: 77%
IC50 [24]: 0.11 µM
Structure (SMILES): CC1CN(c2ncc(C(F)(F)F)cn2)CC(C)N1C(=O)C1CN(C[C@H](C)Nc2cn[nH]c(=O)c2C(F)(F)F)C1 (some centres undefined)
